These results are taken from patent publication US8785452B2, “Anti-infective compounds” (priority 2008, dated 2014).

The subject of one data set is M. tuberculosis H37Rv-GFP. Put plainly: microbe, parasite or virus in culture. Format: cell-based, Mycobacterium tuberculosis.
Details: not given
Consider `Cc1cccn2c(=O)c(CO)c(Nc3cccc(Cl)c3)nc12` [compound 232, 2-(3-Chlorophenylamino)-3-(hydroxymethyl)-9-methyl-4H-pyrido[1,2-a]pyrimidin-4-one], for which the “bacterial load and host cell abundance versus DMSO control” value is “harbored fewer bacteria compared to DMSO control and were more abundant”.

The same data set, now with this note: Mycobacterium tuberculosis, H37RV, Macrophage, read-out: Primary QIM % Inhibition.
Turning to `O=C(Nc1ccc(Cl)cc1[N+](=O)[O-])c1ccc([N+](=O)[O-])cc1Cl` [IPK 000 049 00], the inhibition at 20 µM was found to be 32.1%.

Still in this data set, the particulars now being: Mycobacterium tuberculosis, H37RV, Macrophage, read-out: QIM Confirm % Inhibition 20 uM.
Regarding `O=C(Nc1ccc(Cl)cc1[N+](=O)[O-])c1ccc([N+](=O)[O-])cc1Cl` [IPK 000 049 00], the inhibition at 20 µM turned out to be 74.2%.

Still in this data set, the particulars now being: Mycobacterium tuberculosis, H37RV, Macrophage; confirmation, 20 uM; read-out: QIM Confirm % Inhibition 20 uM.
As to `Cc1ccc(NC(=O)c2c(NC(=O)c3ccccc3Cl)sc3c2CCC3)cc1` [IPK 000 073 69], the inhibition at 20 µM stood at 32.3%.

In the case of `CCCCc1ccc(NC(=O)c2ccc([N+](=O)[O-])cc2Cl)cc1` [IPK 000 047 17], the inhibition at 20 µM stood at 88.5%.

In the case of `O=C(N/N=C/c1ccc(O)cc1O)c1ccncc1` [IPK 000 043 28], the inhibition at 20 µM came to 95.9%.

Consider `CCOC(=O)/C=C/C(=O)Nc1sc(Cc2ccccc2)c(C)c1C(N)=O` [IPK 000 110 16], for which the inhibition at 20 µM amounted to 86%.

For `NNC(=O)c1ccc(COc2ccccc2Br)o1` [IPK 000 124 64], the inhibition at 20 µM turned out to be 78.2%.

Turning to `CC(/C=N/NC(=O)c1ccncc1)c1ccccc1` (centres unmarked) [IPK 000 105 20], the inhibition at 20 µM worked out at 96.4%.

With `COc1ccc(/C(C)=N/NC(N)=S)c(OC)c1` [IPK 000 080 24], the inhibition at 20 µM stood at 23%.

For `O=C(NC1CCCCC1)c1ccc(COc2cc(Cl)ccc2Cl)o1` [IPK 000 123 90], the inhibition at 20 µM worked out at 87.7%.

Take `O=C(Nc1sc2c(c1C(=O)Nc1ccccc1)CCC2)c1ccccc1Cl` [IPK 000 073 68]: the inhibition at 20 µM was found to be 92.6%.

For the compound `c1cc2c(cc1C13CC4CC(CC(C4)C1)C3)c1c3n2CCNC3CCC1` (centres unmarked) [IPK 000 068 87], the inhibition at 20 µM was 71.4%.

Regarding `Cc1ccc(C(=O)NC2CCCCCC2)cc1[N+](=O)[O-]` [IPK 000 047 06], the inhibition at 20 µM was found to be 69.9%.

As for `Cc1sc(/N=C/c2ccc([N+](=O)[O-])s2)c(C(N)=O)c1C` [IPK 000 110 17], the inhibition at 20 µM is 71.6%.

With `Cc1cccn2c(=O)c(C=O)c(Nc3cccc(Cl)c3)nc12` [IPK 000 042 07], the inhibition at 20 µM is 107%.

As for `CN1C/C(=C\c2ccccc2Br)C(=O)/C(=C/c2ccccc2Br)C1` [IPK 000 102 36], the inhibition at 20 µM was determined as 66.5%.

Staying with this data set, now noted: Mycobacterium tuberculosis, H37RV, Macrophage; primary screen, 20 μM; read-out: Primary QIM % Inhibition.
On to `Cc1ccc(NC(=O)c2c(NC(=O)c3ccccc3Cl)sc3c2CCC3)cc1` [IPK 000 073 69], for which the inhibition at 20 µM is 87%.

Turning to `CCCCc1ccc(NC(=O)c2ccc([N+](=O)[O-])cc2Cl)cc1` [IPK 000 047 17], the inhibition at 20 µM was 57.6%.

Turning to `O=C(N/N=C/c1ccc(O)cc1O)c1ccncc1` [IPK 000 043 28], the inhibition at 20 µM was determined as 94.9%.

For the compound `CCOC(=O)/C=C/C(=O)Nc1sc(Cc2ccccc2)c(C)c1C(N)=O` [IPK 000 110 16], the inhibition at 20 µM was 59%.

With `NNC(=O)c1ccc(COc2ccccc2Br)o1` [IPK 000 124 64], the inhibition at 20 µM was found to be 79.9%.

With `CC(/C=N/NC(=O)c1ccncc1)c1ccccc1` (centres unmarked) [IPK 000 105 20], the inhibition at 20 µM came to 97.1%.

Turning to `COc1ccc(/C(C)=N/NC(N)=S)c(OC)c1` [IPK 000 080 24], the inhibition at 20 µM worked out at 0.2%.

As to `O=C(NC1CCCCC1)c1ccc(COc2cc(Cl)ccc2Cl)o1` [IPK 000 123 90], the inhibition at 20 µM is 73.1%.

Take `O=C(Nc1sc2c(c1C(=O)Nc1ccccc1)CCC2)c1ccccc1Cl` [IPK 000 073 68]: the inhibition at 20 µM is 88.2%.

`c1cc2c(cc1C13CC4CC(CC(C4)C1)C3)c1c3n2CCNC3CCC1` (centres unmarked) [IPK 000 068 87]: the inhibition at 20 µM was 73.1%.

In the case of `Cc1ccc(C(=O)NC2CCCCCC2)cc1[N+](=O)[O-]` [IPK 000 047 06], the inhibition at 20 µM was found to be 57.3%.

`Cc1sc(/N=C/c2ccc([N+](=O)[O-])s2)c(C(N)=O)c1C` [IPK 000 110 17]: the inhibition at 20 µM came to 55.6%.

Consider `Cc1cccn2c(=O)c(C=O)c(Nc3cccc(Cl)c3)nc12` [IPK 000 042 07], for which the inhibition at 20 µM is 34.7%.

Regarding `CN1C/C(=C\c2ccccc2Br)C(=O)/C(=C/c2ccccc2Br)C1` [IPK 000 102 36], the inhibition at 20 µM was found to be 65.6%.

The next data set relates to Raw264.7 cells.
Assay: not given
The following applies: mouse.
Take `O=C(Nc1ccc(Cl)cc1[N+](=O)[O-])c1ccc([N+](=O)[O-])cc1Cl` [IPK 000 049 00]: the “Primary QIM CellNb” value was found to be 72.2.

Staying with this data set, now noted: mouse, 5 days, 20 μM.
For `Cc1ccc(NC(=O)c2c(NC(=O)c3ccccc3Cl)sc3c2CCC3)cc1` [IPK 000 073 69], the “Primary QIM CellNb” value is reported as 14.0.

For `CCCCc1ccc(NC(=O)c2ccc([N+](=O)[O-])cc2Cl)cc1` [IPK 000 047 17], the “Primary QIM CellNb” value amounted to 69.7.

Consider `O=C(N/N=C/c1ccc(O)cc1O)c1ccncc1` [IPK 000 043 28], for which the “Primary QIM CellNb” value is 87.1.

On to `CCOC(=O)/C=C/C(=O)Nc1sc(Cc2ccccc2)c(C)c1C(N)=O` [IPK 000 110 16], for which the “Primary QIM CellNb” value is on record as 6.0.

Take `NNC(=O)c1ccc(COc2ccccc2Br)o1` [IPK 000 124 64]: the “Primary QIM CellNb” value turned out to be 54.7.

Regarding `CC(/C=N/NC(=O)c1ccncc1)c1ccccc1` (centres unmarked) [IPK 000 105 20], the “Primary QIM CellNb” value is 103.8.

As for `COc1ccc(/C(C)=N/NC(N)=S)c(OC)c1` [IPK 000 080 24], the “Primary QIM CellNb” value is 67.6.

On to `O=C(NC1CCCCC1)c1ccc(COc2cc(Cl)ccc2Cl)o1` [IPK 000 123 90], for which the “Primary QIM CellNb” value is 26.7.

In the case of `O=C(Nc1sc2c(c1C(=O)Nc1ccccc1)CCC2)c1ccccc1Cl` [IPK 000 073 68], the “Primary QIM CellNb” value is 74.7.

Regarding `c1cc2c(cc1C13CC4CC(CC(C4)C1)C3)c1c3n2CCNC3CCC1` (centres unmarked) [IPK 000 068 87], the “Primary QIM CellNb” value is given as −12.0.

As for `Cc1ccc(C(=O)NC2CCCCCC2)cc1[N+](=O)[O-]` [IPK 000 047 06], the “Primary QIM CellNb” value turned out to be 17.6.

As for `Cc1sc(/N=C/c2ccc([N+](=O)[O-])s2)c(C(N)=O)c1C` [IPK 000 110 17], the “Primary QIM CellNb” value stood at 12.9.

Consider `Cc1cccn2c(=O)c(C=O)c(Nc3cccc(Cl)c3)nc12` [IPK 000 042 07], for which the “Primary QIM CellNb” value was determined as 104.0.

Consider `CN1C/C(=C\c2ccccc2Br)C(=O)/C(=C/c2ccccc2Br)C1` [IPK 000 102 36], for which the “Primary QIM CellNb” value was found to be 4.4.

For the next data set, the system named is M. tuberculosis H37Rv. Put plainly: Conventional CFU determination in infected macrophages. Format: cell-based, Mycobacterium tuberculosis. The following applies: human and mouse cells; seven days after infection; 232 at 20 μM.
As for `Cc1cccn2c(=O)c(CO)c(Nc3cccc(Cl)c3)nc12` [compound 232, 2-(3-Chlorophenylamino)-3-(hydroxymethyl)-9-methyl-4H-pyrido[1,2-a]pyrimidin-4-one], the “decrease in the number of CFUs” value is recorded as “ten-fold decrease”.

The next data set concerns Raw264.7 cells. Put plainly: Cell number (CellNb) from image analysis of the phenotypic cell-based assay.
Details: not given
For `O=C(Nc1ccc(Cl)cc1[N+](=O)[O-])c1ccc([N+](=O)[O-])cc1Cl` [IPK 000 049 00], the “Primary QIM CellNb” value is on record as 108.0.

Staying with this data set, now noted: primary screen, 20 μM.
For `Cc1ccc(NC(=O)c2c(NC(=O)c3ccccc3Cl)sc3c2CCC3)cc1` [IPK 000 073 69], the “Primary QIM CellNb” value turned out to be 246.5.

For the compound `CCCCc1ccc(NC(=O)c2ccc([N+](=O)[O-])cc2Cl)cc1` [IPK 000 047 17], the “Primary QIM CellNb” value was 152.3.

Take `O=C(N/N=C/c1ccc(O)cc1O)c1ccncc1` [IPK 000 043 28]: the “Primary QIM CellNb” value amounted to 326.5.

In the case of `CCOC(=O)/C=C/C(=O)Nc1sc(Cc2ccccc2)c(C)c1C(N)=O` [IPK 000 110 16], the “Primary QIM CellNb” value worked out at 179.5.

Turning to `NNC(=O)c1ccc(COc2ccccc2Br)o1` [IPK 000 124 64], the “Primary QIM CellNb” value amounted to 501.5.

With `CC(/C=N/NC(=O)c1ccncc1)c1ccccc1` (centres unmarked) [IPK 000 105 20], the “Primary QIM CellNb” value was 316.5.

On to `COc1ccc(/C(C)=N/NC(N)=S)c(OC)c1` [IPK 000 080 24], for which the “Primary QIM CellNb” value was 188.8.

Regarding `O=C(NC1CCCCC1)c1ccc(COc2cc(Cl)ccc2Cl)o1` [IPK 000 123 90], the “Primary QIM CellNb” value stood at 205.0.

Turning to `O=C(Nc1sc2c(c1C(=O)Nc1ccccc1)CCC2)c1ccccc1Cl` [IPK 000 073 68], the “Primary QIM CellNb” value was 202.3.

For `c1cc2c(cc1C13CC4CC(CC(C4)C1)C3)c1c3n2CCNC3CCC1` (centres unmarked) [IPK 000 068 87], the “Primary QIM CellNb” value is 156.8.

Regarding `Cc1ccc(C(=O)NC2CCCCCC2)cc1[N+](=O)[O-]` [IPK 000 047 06], the “Primary QIM CellNb” value is reported as 290.8.

In the case of `Cc1sc(/N=C/c2ccc([N+](=O)[O-])s2)c(C(N)=O)c1C` [IPK 000 110 17], the “Primary QIM CellNb” value was determined as 155.5.

As for `Cc1cccn2c(=O)c(C=O)c(Nc3cccc(Cl)c3)nc12` [IPK 000 042 07], the “Primary QIM CellNb” value came to 198.0.

In the case of `CN1C/C(=C\c2ccccc2Br)C(=O)/C(=C/c2ccccc2Br)C1` [IPK 000 102 36], the “Primary QIM CellNb” value amounted to 193.3.
